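Assay format: 96-well plates, 48-hour exposure. At the GI50, growth is halved.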 Active and inactive are the calls of the source. No stated cut-off is given here; in the data, active = GI50 up to about 1.1 µM and inactive = higher.
Assays:
Assay in all cases: NCI-60 cell line screen, 48 h
[1] = test system: EKVX
[2] = test system: HCC 2998
[3] = test system: HCT-15
[4] = test system: HL-60
[5] = test system: HOP-62
[6] = test system: K562
[7] = test system: Malme-3M
[8] = test system: NCI-H226
[9] = test system: NCI-H23
[10] = test system: RXF 393
[11] = test system: SF-268
[12] = test system: SF-295
[13] = test system: SF-539
[14] = test system: SNB-19
[15] = test system: SW-620
[16] = test system: TK-10
[17] = test system: UACC-62

Row | SMILES | GI50 [1] | GI50 [2] | GI50 [3] [µM] | GI50 [4] | GI50 [5] | GI50 [6] | GI50 [7] | GI50 [8] | GI50 [9] | GI50 [10] | GI50 [11] | GI50 [12] | GI50 [13] | GI50 [14] | GI50 [15] | GI50 [16] | GI50 [17]
1 | Cc1cc(C)nc(NS(=O)(=O)c2ccc(Nc3c4ccc(Cl)cc4nc4c(C(=O)NCCN(C)C)cccc34)cc2)n1 | > 100 µM (inactive) | > 100 µM (inactive) | > 100 | > 100 µM (inactive) | > 100 µM (inactive) | 59.2 µM (inactive) | > 100 µM (inactive) | > 100 µM (inactive) | > 100 µM (inactive) | > 100 µM (inactive) | > 100 µM (inactive) | > 100 µM (inactive) | > 100 µM (inactive) | > 100 µM (inactive) | > 100 µM (inactive) | > 100 µM (inactive) | > 100 µM (inactive)
2 | C/N=C(\NC(=S)N(C)C)N(C)C | > 100 µM (inactive) | > 100 µM (inactive) | > 100 | > 100 µM (inactive) | > 100 µM (inactive) | > 100 µM (inactive) | > 100 µM (inactive) | 48.5 µM (inactive) | > 100 µM (inactive) | > 100 µM (inactive) | > 100 µM (inactive) | > 100 µM (inactive) | > 100 µM (inactive) | > 100 µM (inactive) | > 100 µM (inactive) | > 100 µM (inactive) | > 100 µM (inactive)
3 | CC1(C)C(=O)/C=C\C(=O)C(C)(C)C2=CC=C(O2)C(C)(C)C(=O)/C=C\C(=O)C(C)(C)C2=CC=C1O2 | > 100 µM (inactive) | > 100 µM (inactive) | > 100 | > 100 µM (inactive) | > 100 µM (inactive) | > 100 µM (inactive) | > 100 µM (inactive) | > 100 µM (inactive) | > 100 µM (inactive) | > 100 µM (inactive) | > 100 µM (inactive) | > 100 µM (inactive) | – | > 100 µM (inactive) | > 100 µM (inactive) | > 100 µM (inactive) | –
4 | CC(=O)OCc1cc(OC(C)=O)cnc1COC(C)=O | > 100 µM (inactive) | – | > 100 | > 100 µM (inactive) | > 100 µM (inactive) | > 100 µM (inactive) | > 100 µM (inactive) | > 100 µM (inactive) | > 100 µM (inactive) | > 100 µM (inactive) | > 100 µM (inactive) | > 100 µM (inactive) | > 100 µM (inactive) | > 100 µM (inactive) | > 100 µM (inactive) | > 100 µM (inactive) | > 100 µM (inactive)
5 | O=C(O)CSc1nnc(/C=C/c2ccccc2)[nH]1 | > 100 µM (inactive) | > 100 µM (inactive) | > 100 | > 100 µM (inactive) | > 100 µM (inactive) | > 100 µM (inactive) | > 100 µM (inactive) | > 100 µM (inactive) | > 100 µM (inactive) | > 100 µM (inactive) | > 100 µM (inactive) | > 100 µM (inactive) | > 100 µM (inactive) | > 100 µM (inactive) | > 57.5 µM (inactive) | > 100 µM (inactive) | > 100 µM (inactive)
6 | C/C(CN1C(=O)c2ccccc2C1=O)=N\NS(=O)(=O)c1ccc2ccccc2c1 | > 100 µM (inactive) | > 100 µM (inactive) | > 100 | > 100 µM (inactive) | > 100 µM (inactive) | > 100 µM (inactive) | > 100 µM (inactive) | > 100 µM (inactive) | > 100 µM (inactive) | – | 88.5 µM (inactive) | > 100 µM (inactive) | > 100 µM (inactive) | > 100 µM (inactive) | > 100 µM (inactive) | > 100 µM (inactive) | > 100 µM (inactive)
7 | COc1ccc(/C=C/c2onc3c(=O)n(C)nc(-c4ccccc4)c23)cc1 | > 100 µM (inactive) | – | > 100 | > 100 µM (inactive) | 89.3 µM (inactive) | > 100 µM (inactive) | – | – | > 100 µM (inactive) | > 100 µM (inactive) | > 100 µM (inactive) | – | 48.9 µM (inactive) | > 100 µM (inactive) | > 100 µM (inactive) | > 100 µM (inactive) | > 100 µM (inactive)
8 | CCCCN(CCCC)CCCCNc1c(C)cnc2cc(Cl)ccc12 | 20 µM (inactive) | 14.5 µM (inactive) | 29.9 | – | 21.3 µM (inactive) | 10.3 µM (inactive) | 21 µM (inactive) | 16.4 µM (inactive) | 38.7 µM (inactive) | 13.3 µM (inactive) | 21.6 µM (inactive) | 19.1 µM (inactive) | 13.4 µM (inactive) | 52.5 µM (inactive) | 20.9 µM (inactive) | 34.4 µM (inactive) | –
9 | O=C1/C(=C/c2ccc(C(=O)O)cc2)CNC/C1=C\c1ccc(C(=O)O)cc1 | – | > 100 µM (inactive) | > 100 | > 100 µM (inactive) | > 100 µM (inactive) | > 100 µM (inactive) | > 100 µM (inactive) | > 100 µM (inactive) | > 100 µM (inactive) | > 100 µM (inactive) | > 100 µM (inactive) | > 100 µM (inactive) | > 100 µM (inactive) | – | – | > 100 µM (inactive) | > 100 µM (inactive)
10 | Cc1ccc(C2CC(c3ccco3)=NN2c2ccccc2)o1 (stereo unspecified) | > 100 µM (inactive) | – | > 100 | > 100 µM (inactive) | > 100 µM (inactive) | > 100 µM (inactive) | > 100 µM (inactive) | > 100 µM (inactive) | > 100 µM (inactive) | > 100 µM (inactive) | > 100 µM (inactive) | > 100 µM (inactive) | > 100 µM (inactive) | > 100 µM (inactive) | > 100 µM (inactive) | > 100 µM (inactive) | > 100 µM (inactive)
11 | N#CCCN(CCC#N)c1ccc(/C=C2\N=C(CN3C(=O)c4ccccc4C3=O)OC2=O)cc1 | > 100 µM (inactive) | > 100 µM (inactive) | > 100 | > 100 µM (inactive) | > 100 µM (inactive) | > 100 µM (inactive) | > 100 µM (inactive) | > 100 µM (inactive) | – | – | > 100 µM (inactive) | > 100 µM (inactive) | > 100 µM (inactive) | > 100 µM (inactive) | > 100 µM (inactive) | – | > 100 µM (inactive)
12 | Cn1c2ccccc2c(=O)c2c([N+](=O)[O-])ccc(NCCN)c21 | 16.5 µM (inactive) | 7.98 µM (inactive) | 12.9 | 4.17 µM (inactive) | 14 µM (inactive) | – | 14.9 µM (inactive) | 13.7 µM (inactive) | 10.7 µM (inactive) | 9.62 µM (inactive) | 11.3 µM (inactive) | 12.5 µM (inactive) | 8.24 µM (inactive) | 14.1 µM (inactive) | 4.55 µM (inactive) | 14.7 µM (inactive) | 14.9 µM (inactive)
13 | COc1cc(Cl)cc(O)c(=O)c1OC | 25.4 µM (inactive) | 63.4 µM (inactive) | 25.4 | 2.15 µM (inactive) | 41.1 µM (inactive) | 36.5 µM (inactive) | 54.7 µM (inactive) | 25.2 µM (inactive) | 35.1 µM (inactive) | 26.9 µM (inactive) | 25.3 µM (inactive) | 62.4 µM (inactive) | 44.5 µM (inactive) | 56.1 µM (inactive) | – | 44.1 µM (inactive) | 24.4 µM (inactive)
14 | O=C1c2ccccc2C2(O)Nc3cc(O)ccc3C12O (stereo unspecified) | > 100 µM (inactive) | – | > 100 | > 100 µM (inactive) | > 100 µM (inactive) | > 100 µM (inactive) | > 100 µM (inactive) | > 100 µM (inactive) | > 100 µM (inactive) | > 100 µM (inactive) | > 100 µM (inactive) | > 100 µM (inactive) | > 100 µM (inactive) | > 100 µM (inactive) | > 100 µM (inactive) | > 100 µM (inactive) | > 100 µM (inactive)
15 | COC(=O)c1cc(O)ccc1O [METHYL 2,5-DIHYDROXYBENZOATE] | > 100 µM (inactive) | > 100 µM (inactive) | > 100 | > 100 µM (inactive) | > 100 µM (inactive) | > 100 µM (inactive) | > 100 µM (inactive) | > 100 µM (inactive) | – | > 100 µM (inactive) | > 100 µM (inactive) | > 100 µM (inactive) | > 100 µM (inactive) | > 100 µM (inactive) | > 100 µM (inactive) | > 100 µM (inactive) | > 100 µM (inactive)
16 | CCCCCCCCCCCC[N+]12CC[N+](CCN)(CC1)CC2 | > 100 µM (inactive) | 35 µM (inactive) | – | 27.7 µM (inactive) | 68.5 µM (inactive) | 32.1 µM (inactive) | > 100 µM (inactive) | 63.7 µM (inactive) | 51.6 µM (inactive) | 5.62 µM (inactive) | 37.2 µM (inactive) | 51.8 µM (inactive) | 89.7 µM (inactive) | 20.8 µM (inactive) | > 100 µM (inactive) | 17.1 µM (inactive) | 56.9 µM (inactive)
17 | NCCCCCS(=O)(=O)O | > 100 µM (inactive) | > 100 µM (inactive) | > 100 | > 100 µM (inactive) | > 100 µM (inactive) | > 100 µM (inactive) | > 100 µM (inactive) | – | > 100 µM (inactive) | > 100 µM (inactive) | > 100 µM (inactive) | – | > 100 µM (inactive) | > 100 µM (inactive) | > 100 µM (inactive) | > 100 µM (inactive) | > 100 µM (inactive)
18 | C1=CC=C2NCCCCCCC/N=C3/C=CC=CC=C3NCCCCCCC/N=C\2C=C1 | > 100 µM (inactive) | > 100 µM (inactive) | > 100 | 43.5 µM (inactive) | 10 µM (inactive) | 30.1 µM (inactive) | > 100 µM (inactive) | > 100 µM (inactive) | 11.9 µM (inactive) | 16.9 µM (inactive) | > 100 µM (inactive) | 47.5 µM (inactive) | 30.9 µM (inactive) | > 100 µM (inactive) | 79.6 µM (inactive) | – | 10 µM (inactive)
